Experimental data: patent publication EP2033955A1, “Urea derivatives of 1H-pyrazol-4-carboxylic acid with neutrophil chemotaxis inhibiting activity” (Universita' Degli Studi Di Genova, priority 2007, dated 2009)

Legend:
[1] = tested on: human peripheral blood neutrophils; experiment: Inhibition of fMLP-induced neutrophil chemotaxis (48-well microchemotaxis chamber, leading-front method); type: cell-based; settings: for Percentage in brackets after the fMLP CI50 bound: meaning of the percentage not explained; for IC50: read-out: Inhibition of the migration of neutrophils induced by fMLP CI50
Description: (§1) The inhibitory activity of the compounds according to the present invention towards fMLP- or CXCL8-induced chemotaxiswas evaluated following methods described in the literature (Giordano, C. et al., Bioorg. Med. Chem. 2006, 14, 2642 and documents cited in such article).
(§2) Cells were obtained from blood of healthy subjects and human peripheral blood neutrophils were purified by using the standard techniques of dextran sedimentation (Pharmacia, Uppsala, Sweden), centrifugation on Ficoll-Paque (Pharmacia) and hypotonic lysis of contaminating red blood cells. The cells were washed twice and resuspended in Krebs-Ringer (KRPG) phosphate, pH 7.4, at a final concentration of 50 x 10^6 cells/ml and kept at room temperature until used. The neutrophils were 98-100% viable, as determined using the Trypan blue exclusion test.
(§3) The f-MLP-OMe and the compounds to be tested (10-^2M) were dissolved in dimethylsulfoxide (DMSO) while CXCL8 (10^-5 M) was dissolved in water. All solutions were diluted in KRPG before use to obtain the final concentration required by the experimental protocol.
(§4) A random locomotion test was carried out with a 48-well microchemotaxis chamber (Bio Probe, Milan) and migration into the filter was evaluated by the leading-front method (Gennari, C. et al, Eur. J. Org. Chem. (1998), p. 945) by estimating the distance in micrometres which the leading edge of the cell migrated. The actual control random movement is 35 ± 3 µm SE of six separate experiments carried out in duplicate.
(§5) The directional movement or chemotaxis was measured with the same chamber used for the random locomotion, adding fMLP-OMe 10^-9 M or CXCL8 10^-8 M in the lower compartment.
(§6) Each compound to be tested was added in the upper compartment of the chemotaxis chamber, diluted at concentrations varying from 10^-15 to 10^-5 M with KRPG containing 1 mg/ml of bovine serum albumin (BSA; Orha Behringwerke, Germany).
(§7) The neutrophils were pre-incubated with the compounds to be tested ten minutes before the functional test. The data was expressed in terms of chemotactic index (C.I.), which is the ratio (migration towards test attractant - migration towards the buffer)/migration towards the buffer.
(§8) The antagonism was measured as C.I. in the absence (100%) and in the presence of the compound to be tested at different concentrations. CI50 values were calculated from the sigmoid dose-response curve by a nonlinear regression analysis (Graph Pad Prism, San Diego, USA).
(§9) The values are means of six separate experiments carried out twice. The standard errors are in the range of 0.02-0.09 C.I.

[2] = tested on: human peripheral blood neutrophils; experiment: Inhibition of IL8 (CXCL8)-induced neutrophil chemotaxis (48-well microchemotaxis chamber, leading-front method); type: cell-based; settings: CXCL8 10^-8 M in lower compartment, neutrophils pre-incubated ten minutes with compound, means of six experiments, read-out: Inhibition of the migration of neutrophils induced by IL8 CI50
Description: as §1, §2, §3, §4, §5, §6, §7, §8, §9

[3] = Homo sapiens, Neutrophil, fMLP-OMe 10^-9 M in lower compartment, neutrophils pre-incubated ten minutes with compound, means of six experiments
[4] = Homo sapiens, Neutrophil, fMLP-OMe 10^-9 M, unit µM, highest tested concentration 10^-5 M
[5] = fMLP-OMe 10^-9 M in lower compartment, neutrophils pre-incubated ten minutes with compound, means of six experiments

Row | Compound | IC50 [1, 3] | IC50 ([2]; Homo sapiens, Neutrophil) | further results
1 | CCOC(=O)c1cnn(CC(C)O)c1NC(=O)NN1CCN(Cc2ccccc2)CC1 (centres unmarked) [Id, 1-(2-hydroxypropyl)-5-[3-(4-benzyl)piperazinylureido]-1H-pyrazole-4-carboxylic acid ethyl ester] |  |  | Percentage in brackets after the fMLP CI50 bound ([1]; fMLP-OMe 10^-9 M): 63%; IC50 ([1]; fMLP-OMe 10^-9 M, unit µM, highest tested concentration 10^-5 M): > 10 µM
2 | CCOC(=O)c1cnn(CC(O)CC)c1NC(=O)NC(C)C (centres unmarked) [Ii, 1-(2hydroxybutyl)-5-(3-isopropylureido)-1H-pyrazole-4-carboxylic acid ethyl ester] |  | 0.0042 ± 0.0007 nM | IC50 [1, 4]: > 10 µM; Percentage in brackets after the fMLP CI50 bound ([1]; fMLP-OMe 10^-9 M): 52%
3 | CCOC(=O)c1cnn(CC(C)O)c1NC(=O)Nc1cccc2ccccc12 (centres unmarked) [Ih, 1-(2-hydroxypropyl)-5-[3-(1-naphthyl)ureido]-1H-pyrazole-4-carboxylic acid ethyl ester] | 0.0098 ± 0.0009 µM |  | 
4 | CCOC(=O)c1cnn(CC(O)CC)c1NC(=O)Nc1ccc(F)cc1 (centres unmarked) [In, 1-(2-hydroxybutyl)-5-[3-(4-fluorophenyl)ureido]-1H-pyrazole-4-carboxylic acid ethyl ester] | 0.0032 ± 0.0004 µM | 1.9 ± 0.13 nM | 
5 | COC(=O)[C@H](Cc1ccccc1)NC(=O)[C@H](CC(C)C)NC(=O)[C@H](CCSC)NC=O [fMLP-OMe] |  |  | chemotactic index (C.I.) ([1]; chemoattractant alone at 10^-9): 1.2
6 | CCOC(=O)c1cnn(CC(O)c2ccccc2)c1NC(=O)Nc1cccc2ccccc12 (centres unmarked) [Ia, 1-(2-hydroxy-2-phenylethyl)-5-[3-(1-naphthyl)ureido]-1H-pyrazole-4-carboxylic acid ethyl ester] | 0.0078 ± 0.00052 µM | 0.0076 ± 0.001 nM | 
7 | CCCC(O)Cn1ncc(C(=O)OCC)c1NC(=O)NN1CCN(Cc2ccccc2)CC1 (centres unmarked) [Ir, 1-(2-hydroxypentyl)-5-[3-(4-benzyl)piperazinylureido)-1H-pyrazole-4-carboxylic acid ethyl ester] |  |  | IC50 [2]: 0.09 ± 0.004 nM; IC50 [1, 5]: 0.0011 ± 0.0001 µM
8 | CCOC(=O)c1cnn(CC(O)CC)c1NC(=O)Nc1cccc(F)c1 (centres unmarked) [Im, 1-(2-hydroxybutyl)-5-[3-(3-fluorophenyl)ureido]-1H-pyrazole-4-carboxylic acid ethyl ester] | 0.00019 ± 1e-05 µM | 0.36 ± 0.06 nM | 
9 | CCOC(=O)c1cnn(CC(C)O)c1NC(=O)Nc1ccc(F)cc1 (centres unmarked) [Ig, 1-(2-hydroxypropyl)-5-[3-(4-fluorophenyl)ureido]-1H-pyrazole-4-carboxylic acid ethyl ester] |  | 0.2 ± 0.06 nM | IC50 [1, 4]: > 10 µM; Percentage in brackets after the fMLP CI50 bound ([1]; fMLP-OMe 10^-9 M): 55%
10 | CCOC(=O)c1cnn(CC(C)O)c1NC(=O)NC(C)C (centres unmarked) [Ib, 1-(2-hydroxypropyl)-5-(3-isopropylureido)-1H-pyrazole-4-carboxylic acid ethyl ester] | 0.09 ± 0.0093 µM |  | 
11 | CCOC(=O)c1cnn(CC(C)O)c1NC(=O)Nc1cccc(F)c1 (centres unmarked) [If, 1-(2-hydroxypropyl)-5-[3-(3-fluorophenyl)ureido]-1H-pyrazole-4-carboxylic acid ethyl ester] |  |  | IC50 [1, 4]: > 10 µM; Percentage in brackets after the fMLP CI50 bound ([1]; fMLP-OMe 10^-9 M): 60%
12 | CCOC(=O)c1cnn(CC(O)CC)c1NC(=O)NN1CCN(Cc2ccccc2)CC1 (centres unmarked) [Ik, 1-(2-hydroxybutyl)-5-[3-(4-benzyl)piperazinylureido)-1H-pyrazole-4-carboxylic acid ethyl ester] |  |  | IC50 [1, 5]: 2 ± 0.2 µM
13 | CCCC(O)Cn1ncc(C(=O)OCC)c1NC(=O)NC(C)C (centres unmarked) [Ip, 1-(2-hydroxypentyl)-5-(3-isopropylureido)-1H-pyrazole-4-carboxylic acid ethyl ester] | 0.02 ± 0.0022 µM | 1 ± 0.05 nM | 
14 | CCOC(=O)c1cnn(CC(C)O)c1NC(=O)Nc1ccccc1F (centres unmarked) [Ie, 1-(2-hydroxypropyl)-5-[3-(2-fluorophenyl)ureido]-1H-pyrazole-4-carboxylic acid ethyl ester] | 0.1 ± 0.0103 µM |  | 

Continued, in another order:

Row | IC50 [1, 3] | IC50 ([2]; Homo sapiens, Neutrophil) | Compound | further results
15 | 0.015 ± 0.0011 µM |  | CCOC(=O)c1cnn(CC(C)O)c1NC(=O)NCc1ccccc1 (centres unmarked) [Ic, 1-(2-hydroxypropyl)-5-(3-benzylureido)-1H-pyrazole-4-carboxylic acid ethyl ester] | 
16 | 0.00043 ± 5e-05 µM | 0.0032 ± 0.0001 nM | CCCC(O)Cn1ncc(C(=O)OCC)c1NC(=O)NCc1ccccc1 (centres unmarked) [Iq, 1-(2-hydroxypentyl)-5-(3-benzylureido)-1H-pyrazole-4-carboxylic acid ethyl ester] | 
17 | 0.012 ± 0.0012 µM | 9.6 ± 1 nM | CCOC(=O)c1cnn(CC(O)CC)c1NC(=O)Nc1cccc2ccccc12 (centres unmarked) [Io, 1-(2-hydroxybutyl)-5-[3-(1-naphthyl)ureido]-1H-pyrazole-4-carboxylic acid ethyl ester] | 
18 | 0.12 ± 0.012 µM | 0.0016 ± 0.0002 nM | CCOC(=O)c1cnn(CC(O)CC)c1NC(=O)Nc1ccccc1F (centres unmarked) [Il, 1-(2-hydroxybutyl)-5-[3-(2-fluorophenyl)ureido]-1H-pyrazole-4-carboxylic acid ethyl ester] | 
19 |  | 0.0074 ± 0.0002 nM | CCOC(=O)c1cnn(CC(O)CC)c1NC(=O)NCc1ccccc1 (centres unmarked) [Ij, 1-(2-hydroxybutyl)-5-(3-benzylureido)-1H-pyrazole-4-carboxylic acid ethyl ester] | IC50 [1, 4]: > 10 µM; Percentage in brackets after the fMLP CI50 bound ([1]; fMLP-OMe 10^-9 M): 54%
